Laboratory results from PMC4890880 (ACS infectious diseases, 2016).
pIC50: −log10 of the molar value. Read-outs that look alike come from different tables or passages of the source.

How the values were obtained:
[1] = system: HepG2-A16-CD81EGFP cells; conditions: for pIC50: read-out: Tox_IC50, HepG2 cytotoxicity
[2] = system: Plasmodium berghei (Pb-Luc) exoerythrocytic-stage parasites; conditions: for pIC50: read-out: PbLuc_IC50
[3] = sheet 2nd round, maximal inhibition in dose response
[4] = first series of columns, fraction of control
[5] = sheet 2nd round, Pb-Luc exoerythrocytic stage, 10-point dose response, top concentration 10
[6] = second series of columns (replicate), fraction of control
[7] = first series of dose-response columns, fraction of control
[8] = first series, fraction of control
[9] = sheet 2nd round, Broad compounds, dose response
[10] = second series of dose-response columns, fraction of control
[11] = second series, fraction of control
[12] = 2nd round, maximal inhibition in dose series

COc1cccc(S(=O)(=O)N2CCCCN3[C@H](CO)[C@H](c4ccc(C#CCC(C)C)cc4)[C@H]3C2)c1 [BRD-K69197522-001-01-4]
pIC50 ([1]; sheet 2nd round): < 5.00 | Tox_max_inhibition (%) [1, 3]: 6.65% | normalized signal at concentration 0.000508053 [2, 4]: 0.7703 | normalized signal at concentration 0.00152416 [2, 4]: 0.9681 | normalized signal at concentration 0.00457247 [2, 4]: 1.135 | normalized signal at concentration 0.0137174 [2, 4]: 0.9046 | normalized signal at concentration 0.0411523 [2, 4]: 0.9718 | normalized signal at concentration 0.123457 [2, 4]: 0.7468 | normalized signal at concentration 0.37037 [2, 4]: 1.034 | normalized signal at concentration 1.11111 [2, 4]: 0.9136 | normalized signal at concentration 3.33333 [2, 4]: 0.9728 | normalized signal at concentration 10 [2, 4]: 0.6517 | pIC50 [2, 5]: < 5.00 | normalized signal at concentration 0.000508053 [2, 6]: 0.9237 | normalized signal at concentration 0.00152416 [2, 6]: 0.8984 | normalized signal at concentration 0.00457247 [2, 6]: 1.009 | normalized signal at concentration 0.0137174 [2, 6]: 0.9117 | normalized signal at concentration 0.0411523 [2, 6]: 0.9735 | normalized signal at concentration 0.123457 [2, 6]: 1.068 | normalized signal at concentration 0.37037 [2, 6]: 0.8113 | normalized signal at concentration 1.11111 [2, 6]: 0.8704 | normalized signal at concentration 3.33333 [2, 6]: 1.117 | normalized signal at concentration 10 [2, 6]: 0.6736 | PbLuc_max_inhibition (%) [2, 3]: 35%

C[C@H](CO)N1C[C@H](C)[C@@H](CN(C)C(=O)Nc2ccc(C(F)(F)F)cc2)Oc2c(NC(=O)c3ccc(-c4nccs4)cc3)cccc2C1=O [BRD-K70940716-001-01-0]
pIC50 ([1]; sheet 2nd round): < 5.00 | Tox_max_inhibition (%) [1, 3]: 7% | normalized signal at concentration 10 [2, 7]: 1.176 | normalized signal at concentration 0.000508053 [2, 8]: 0.7879 | normalized signal at concentration 0.00152416 [2, 8]: 0.8471 | normalized signal at concentration 0.00457247 [2, 8]: 0.871 | normalized signal at concentration 0.0137174 [2, 8]: 0.8913 | normalized signal at concentration 0.0411523 [2, 8]: 0.831 | normalized signal at concentration 0.123457 [2, 8]: 0.9514 | normalized signal at concentration 0.37037 [2, 8]: 0.8506 | normalized signal at concentration 1.11111 [2, 8]: 0.9296 | normalized signal at concentration 3.33333 [2, 8]: 1.136 | pIC50 [2, 9]: < 5.00 | normalized signal at concentration 10 [2, 10]: 1.096 | normalized signal at concentration 0.000508053 [2, 11]: 1.058 | normalized signal at concentration 0.00152416 [2, 11]: 0.9924 | normalized signal at concentration 0.00457247 [2, 11]: 0.8277 | normalized signal at concentration 0.0137174 [2, 11]: 1.075 | normalized signal at concentration 0.0411523 [2, 11]: 1.139 | normalized signal at concentration 0.123457 [2, 11]: 0.9792 | normalized signal at concentration 0.37037 [2, 11]: 1.201 | normalized signal at concentration 1.11111 [2, 11]: 1.005 | normalized signal at concentration 3.33333 [2, 11]: 1.1649 | PbLuc_max_inhibition (%) [2, 3]: 21%

O=C(Cc1ccccn1)N1CC2(C1)[C@H](c1ccccc1)[C@H](CO)N2C(=O)c1ccncc1 [BRD-K71274172-001-01-0]
Tox_max_inhibition (%) [1, 12]: 8% | pIC50 ([1]; 2nd round, unit inferred): < 5.00 | PbLuc_max_inhibition (%) [2, 12]: 33% | normalized signal at 0.000508053 (first series) ([2]; concentration 0.000508053, first replicate series, fraction of control): 0.9199 | normalized signal at 0.000508053 (second series) ([2]; concentration 0.000508053, second replicate series, fraction of control): 0.7398 | normalized signal at 0.00152416 (first series) ([2]; concentration 0.00152416, first replicate series, fraction of control): 1.024 | normalized signal at 0.00152416 (second series) ([2]; concentration 0.00152416, second replicate series, fraction of control): 0.9453 | normalized signal at 0.00457247 (first series) ([2]; concentration 0.00457247, first replicate series, fraction of control): 1.112 | normalized signal at 0.00457247 (second series) ([2]; concentration 0.00457247, second replicate series, fraction of control): 0.9743 | normalized signal at 0.0137174 (first series) ([2]; concentration 0.0137174, first replicate series, fraction of control): 0.9082 | normalized signal at 0.0137174 (second series) ([2]; concentration 0.0137174, second replicate series, fraction of control): 0.6716 | normalized signal at 0.0411523 (first series) ([2]; concentration 0.0411523, first replicate series, fraction of control): 1.078 | normalized signal at 0.0411523 (second series) ([2]; concentration 0.0411523, second replicate series, fraction of control): 0.9171 | normalized signal at 0.123457 (first series) ([2]; concentration 0.123457, first replicate series, fraction of control): 1.09 | normalized signal at 0.123457 (second series) ([2]; concentration 0.123457, second replicate series, fraction of control): 1.008 | normalized signal at 0.37037 (first series) ([2]; concentration 0.37037, first replicate series, fraction of control): 0.9519 | normalized signal at 0.37037 (second series) ([2]; concentration 0.37037, second replicate series, fraction of control): 0.8993 | normalized signal at 1.11111 (first series) ([2]; concentration 1.11111, first replicate series, fraction of control): 1.039 | normalized signal at 1.11111 (second series) ([2]; concentration 1.11111, second replicate series, fraction of control): 0.6979 | normalized signal at 3.33333 (first series) ([2]; concentration 3.33333, first replicate series, fraction of control): 0.9642 | normalized signal at 3.33333 (second series) ([2]; concentration 3.33333, second replicate series, fraction of control): 0.9744 | normalized signal at 10 (first series) ([2]; concentration 10, first replicate series, fraction of control): 1.127 | normalized signal at 10 (second series) ([2]; concentration 10, second replicate series, fraction of control): 0.8663 | pIC50 ([2]; 2nd round, Broad DOS compounds, unit not printed (dose series head 10 to 0.000508053)): < 5.00

Cc1noc(C)c1S(=O)(=O)N(C)C[C@H]1OCc2cn(nn2)CCCC(=O)N([C@@H](C)CO)C[C@@H]1C [BRD-K72210630-001-02-7]
pIC50 ([1]; sheet 2nd round): < 5.00 | Tox_max_inhibition (%) [1, 3]: 5% | normalized signal at concentration 0.000508053 [2, 4]: 0.823 | normalized signal at concentration 0.00152416 [2, 4]: 0.7982 | normalized signal at concentration 0.00457247 [2, 4]: 0.9501 | normalized signal at concentration 0.0137174 [2, 4]: 0.8214 | normalized signal at concentration 0.0411523 [2, 4]: 0.9732 | normalized signal at concentration 0.123457 [2, 4]: 0.8751 | normalized signal at concentration 0.37037 [2, 4]: 1.086 | normalized signal at concentration 1.11111 [2, 4]: 0.9189 | normalized signal at concentration 3.33333 [2, 4]: 0.9135 | normalized signal at concentration 10 [2, 4]: 1.047 | pIC50 [2, 5]: < 5.00 | normalized signal at concentration 0.000508053 [2, 6]: 1.029 | normalized signal at concentration 0.00152416 [2, 6]: 0.9027 | normalized signal at concentration 0.00457247 [2, 6]: 0.8403 | normalized signal at concentration 0.0137174 [2, 6]: 1.03 | normalized signal at concentration 0.0411523 [2, 6]: 0.8593 | normalized signal at concentration 0.123457 [2, 6]: 1 | normalized signal at concentration 0.37037 [2, 6]: 0.7692 | normalized signal at concentration 1.11111 [2, 6]: 0.8393 | normalized signal at concentration 3.33333 [2, 6]: 0.8793 | normalized signal at concentration 10 [2, 6]: 0.8029 | PbLuc_max_inhibition (%) [2, 3]: 23%

C[C@@H]1CN([C@H](C)CO)C(=O)c2cc(N(C)C)ccc2O[C@@H](C)CCCCO[C@H]1CN(C)S(=O)(=O)c1ccc(F)cc1 [BRD-K72687327-001-01-6]
pIC50 ([1]; sheet 2nd round): < 5.00 | Tox_max_inhibition (%) [1, 3]: 11% | normalized signal at concentration 10 [2, 7]: 0.73 | normalized signal at concentration 0.000508053 [2, 8]: 1.09 | normalized signal at concentration 0.00152416 [2, 8]: 1.10 | normalized signal at concentration 0.00457247 [2, 8]: 0.91 | normalized signal at concentration 0.0137174 [2, 8]: 1.11 | normalized signal at concentration 0.0411523 [2, 8]: 0.89 | normalized signal at concentration 0.123457 [2, 8]: 0.84 | normalized signal at concentration 0.37037 [2, 8]: 0.92 | normalized signal at concentration 1.11111 [2, 8]: 0.97 | normalized signal at concentration 3.33333 [2, 8]: 1.01 | pIC50 [2, 9]: < 5.00 | normalized signal at concentration 10 [2, 10]: 0.75 | normalized signal at concentration 0.000508053 [2, 11]: 0.96 | normalized signal at concentration 0.00152416 [2, 11]: 1.08 | normalized signal at concentration 0.00457247 [2, 11]: 0.94 | normalized signal at concentration 0.0137174 [2, 11]: 1.05 | normalized signal at concentration 0.0411523 [2, 11]: 1.15 | normalized signal at concentration 0.123457 [2, 11]: 0.88 | normalized signal at concentration 0.37037 [2, 11]: 1.15 | normalized signal at concentration 1.11111 [2, 11]: 1.02 | normalized signal at concentration 3.33333 [2, 11]: 1.11 | PbLuc_max_inhibition (%) [2, 3]: 27%

COc1ccccc1NC(=O)N1C[C@@H]2N[C@H](C1)C2c1ccc(/C=C/c2ccccc2)cc1 (stereo partly drawn) [BRD-K72765192-019-01-4]
pIC50 ([1]; sheet 2nd round): < 5.00 | Tox_max_inhibition (%) [1, 3]: 5.61% | normalized signal at concentration 0.000508053 [2, 4]: 0.9244 | normalized signal at concentration 0.00152416 [2, 4]: 0.9767 | normalized signal at concentration 0.00457247 [2, 4]: 0.9222 | normalized signal at concentration 0.0137174 [2, 4]: 1.063 | normalized signal at concentration 0.0411523 [2, 4]: 0.9659 | normalized signal at concentration 0.123457 [2, 4]: 0.9808 | normalized signal at concentration 0.37037 [2, 4]: 1.083 | normalized signal at concentration 1.11111 [2, 4]: 0.9875 | normalized signal at concentration 3.33333 [2, 4]: 1.091 | normalized signal at concentration 10 [2, 4]: 0.9372 | pIC50 [2, 5]: < 5.00 | normalized signal at concentration 0.000508053 [2, 6]: 0.82 | normalized signal at concentration 0.00152416 [2, 6]: 0.9053 | normalized signal at concentration 0.00457247 [2, 6]: 1.027 | normalized signal at concentration 0.0137174 [2, 6]: 0.8721 | normalized signal at concentration 0.0411523 [2, 6]: 0.9154 | normalized signal at concentration 0.123457 [2, 6]: 0.911 | normalized signal at concentration 0.37037 [2, 6]: 1.02 | normalized signal at concentration 1.11111 [2, 6]: 0.9038 | normalized signal at concentration 3.33333 [2, 6]: 0.8733 | normalized signal at concentration 10 [2, 6]: 0.8146 | PbLuc_max_inhibition (%) [2, 3]: 19%
